Experimental data from ChEMBL document CHEMBL3352415, “Synthesis and biological evaluation of novel thiadiazole amides as potent Cdc25B and PTP1B inhibitors” (Bioorg Med Chem Lett, 2014).
Active and inactive are the calls of the source. The rule behind the calls is not given here.

What was measured:
[1] = target: T1, Tyrosine-protein phosphatase non-receptor type 1 (Homo sapiens) (UniProt P18031); assay: Inhibition of PTP1B (unknown origin) at 5 ug/ml
T1 sequence (whole entry): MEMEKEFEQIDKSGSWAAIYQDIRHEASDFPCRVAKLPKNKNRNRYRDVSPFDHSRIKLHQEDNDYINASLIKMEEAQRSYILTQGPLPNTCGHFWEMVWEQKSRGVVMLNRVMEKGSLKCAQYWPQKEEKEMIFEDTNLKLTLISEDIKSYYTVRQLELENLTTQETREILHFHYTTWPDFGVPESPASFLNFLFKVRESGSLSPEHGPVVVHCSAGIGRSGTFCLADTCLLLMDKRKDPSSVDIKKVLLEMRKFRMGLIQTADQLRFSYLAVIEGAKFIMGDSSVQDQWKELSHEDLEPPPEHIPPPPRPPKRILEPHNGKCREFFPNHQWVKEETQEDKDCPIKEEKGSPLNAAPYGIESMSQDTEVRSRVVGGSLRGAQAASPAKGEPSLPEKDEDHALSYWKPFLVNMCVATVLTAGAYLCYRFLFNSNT

[2] = target: T1, Tyrosine-protein phosphatase non-receptor type 1 (Homo sapiens); assay: Mixed inhibition of PTP1B (unknown origin) by Lineweaver-Burk plot
[3] = target: T2, M-phase inducer phosphatase 2 (Homo sapiens) (UniProt P30305); assay: Inhibition of Cdc25B (unknown origin) at 5 ug/ml
T2 sequence (whole entry): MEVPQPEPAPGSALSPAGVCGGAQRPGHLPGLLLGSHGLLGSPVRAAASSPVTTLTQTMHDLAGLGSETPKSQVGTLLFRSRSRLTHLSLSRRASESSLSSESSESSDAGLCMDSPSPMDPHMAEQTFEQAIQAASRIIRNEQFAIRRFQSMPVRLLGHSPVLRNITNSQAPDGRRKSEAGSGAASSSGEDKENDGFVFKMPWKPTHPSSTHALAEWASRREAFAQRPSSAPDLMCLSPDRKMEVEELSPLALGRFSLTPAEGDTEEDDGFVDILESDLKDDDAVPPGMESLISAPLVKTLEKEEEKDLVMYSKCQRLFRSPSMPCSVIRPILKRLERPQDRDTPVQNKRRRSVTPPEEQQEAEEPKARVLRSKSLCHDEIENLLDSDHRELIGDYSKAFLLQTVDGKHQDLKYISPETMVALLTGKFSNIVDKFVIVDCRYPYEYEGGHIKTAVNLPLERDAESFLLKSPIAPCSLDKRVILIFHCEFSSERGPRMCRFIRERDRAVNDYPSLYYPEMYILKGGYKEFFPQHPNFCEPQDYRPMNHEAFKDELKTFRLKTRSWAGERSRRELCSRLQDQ

[4] = target: Tyrosine-protein phosphatase non-receptor type 6 (Homo sapiens, UniProt P29350); assay: Inhibition of SHP1 (unknown origin)
[5] = target: Receptor-type tyrosine-protein phosphatase F (Homo sapiens, UniProt P10586); assay: Inhibition of LAR (unknown origin)
[6] = target: T3, Tyrosine-protein phosphatase non-receptor type 2 (Homo sapiens, UniProt P17706); assay: Inhibition of TCPTP (unknown origin)
T3 sequence (P17706 whole entry): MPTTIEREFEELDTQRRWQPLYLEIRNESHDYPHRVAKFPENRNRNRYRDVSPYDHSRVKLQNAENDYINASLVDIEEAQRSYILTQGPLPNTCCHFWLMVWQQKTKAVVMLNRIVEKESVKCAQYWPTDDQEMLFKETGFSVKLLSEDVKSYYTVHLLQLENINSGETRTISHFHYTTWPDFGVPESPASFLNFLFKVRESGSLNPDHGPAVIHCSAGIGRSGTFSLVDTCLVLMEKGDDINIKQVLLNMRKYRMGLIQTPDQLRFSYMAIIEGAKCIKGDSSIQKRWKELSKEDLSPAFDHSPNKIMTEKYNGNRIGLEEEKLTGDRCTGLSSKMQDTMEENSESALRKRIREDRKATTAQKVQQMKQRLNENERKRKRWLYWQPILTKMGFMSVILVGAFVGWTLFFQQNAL

[7] = target: T4, Tyrosine-protein phosphatase non-receptor type 1 (Homo sapiens, UniProt P18031); assay: Inhibition of PTP1B (unknown origin)
T4 sequence (P18031 whole entry): T1 sequence (whole entry)

[8] = target: T5, Tyrosine-protein phosphatase non-receptor type 11 (Homo sapiens, UniProt Q06124); assay: Inhibition of SHP2 (unknown origin)
T5 sequence (Q06124 whole entry): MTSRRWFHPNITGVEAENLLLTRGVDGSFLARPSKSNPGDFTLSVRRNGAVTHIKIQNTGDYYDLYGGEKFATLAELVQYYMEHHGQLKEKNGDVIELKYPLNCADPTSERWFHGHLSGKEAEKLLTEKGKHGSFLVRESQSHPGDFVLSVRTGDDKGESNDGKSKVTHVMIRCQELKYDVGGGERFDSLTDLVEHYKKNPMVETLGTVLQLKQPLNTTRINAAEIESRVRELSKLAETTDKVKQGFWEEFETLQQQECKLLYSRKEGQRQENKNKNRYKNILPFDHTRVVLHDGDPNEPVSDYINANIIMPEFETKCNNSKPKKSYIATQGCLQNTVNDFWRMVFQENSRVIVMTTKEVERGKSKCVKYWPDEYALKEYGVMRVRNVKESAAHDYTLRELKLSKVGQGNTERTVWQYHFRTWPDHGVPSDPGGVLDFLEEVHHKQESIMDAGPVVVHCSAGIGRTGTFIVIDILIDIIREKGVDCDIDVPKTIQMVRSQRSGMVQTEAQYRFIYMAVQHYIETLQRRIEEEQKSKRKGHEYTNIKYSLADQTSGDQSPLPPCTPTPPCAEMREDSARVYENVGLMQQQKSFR

[9] = target: T6, M-phase inducer phosphatase 2 (Homo sapiens, UniProt P30305); assay: Inhibition of Cdc25B (unknown origin)
T6 sequence (P30305 whole entry): T2 sequence (whole entry)

Tyrosine-protein phosphatase non-receptor type 6, sequence (P29350 whole entry): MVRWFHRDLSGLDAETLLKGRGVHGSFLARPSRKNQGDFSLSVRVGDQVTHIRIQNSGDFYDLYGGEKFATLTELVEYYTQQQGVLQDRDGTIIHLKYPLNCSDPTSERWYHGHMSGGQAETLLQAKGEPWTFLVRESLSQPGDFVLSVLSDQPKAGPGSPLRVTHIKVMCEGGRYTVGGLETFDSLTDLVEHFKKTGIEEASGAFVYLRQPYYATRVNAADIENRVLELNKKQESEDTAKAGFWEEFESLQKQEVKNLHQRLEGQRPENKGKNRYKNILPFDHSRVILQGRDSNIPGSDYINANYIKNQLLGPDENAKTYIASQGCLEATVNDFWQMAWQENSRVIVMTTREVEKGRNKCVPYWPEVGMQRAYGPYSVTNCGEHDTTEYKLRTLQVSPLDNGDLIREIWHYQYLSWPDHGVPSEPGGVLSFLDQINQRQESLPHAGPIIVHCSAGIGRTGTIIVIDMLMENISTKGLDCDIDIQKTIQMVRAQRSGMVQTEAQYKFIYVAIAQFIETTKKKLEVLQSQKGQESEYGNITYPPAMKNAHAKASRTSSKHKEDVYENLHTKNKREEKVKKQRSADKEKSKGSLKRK
Receptor-type tyrosine-protein phosphatase F, sequence (P10586 whole entry): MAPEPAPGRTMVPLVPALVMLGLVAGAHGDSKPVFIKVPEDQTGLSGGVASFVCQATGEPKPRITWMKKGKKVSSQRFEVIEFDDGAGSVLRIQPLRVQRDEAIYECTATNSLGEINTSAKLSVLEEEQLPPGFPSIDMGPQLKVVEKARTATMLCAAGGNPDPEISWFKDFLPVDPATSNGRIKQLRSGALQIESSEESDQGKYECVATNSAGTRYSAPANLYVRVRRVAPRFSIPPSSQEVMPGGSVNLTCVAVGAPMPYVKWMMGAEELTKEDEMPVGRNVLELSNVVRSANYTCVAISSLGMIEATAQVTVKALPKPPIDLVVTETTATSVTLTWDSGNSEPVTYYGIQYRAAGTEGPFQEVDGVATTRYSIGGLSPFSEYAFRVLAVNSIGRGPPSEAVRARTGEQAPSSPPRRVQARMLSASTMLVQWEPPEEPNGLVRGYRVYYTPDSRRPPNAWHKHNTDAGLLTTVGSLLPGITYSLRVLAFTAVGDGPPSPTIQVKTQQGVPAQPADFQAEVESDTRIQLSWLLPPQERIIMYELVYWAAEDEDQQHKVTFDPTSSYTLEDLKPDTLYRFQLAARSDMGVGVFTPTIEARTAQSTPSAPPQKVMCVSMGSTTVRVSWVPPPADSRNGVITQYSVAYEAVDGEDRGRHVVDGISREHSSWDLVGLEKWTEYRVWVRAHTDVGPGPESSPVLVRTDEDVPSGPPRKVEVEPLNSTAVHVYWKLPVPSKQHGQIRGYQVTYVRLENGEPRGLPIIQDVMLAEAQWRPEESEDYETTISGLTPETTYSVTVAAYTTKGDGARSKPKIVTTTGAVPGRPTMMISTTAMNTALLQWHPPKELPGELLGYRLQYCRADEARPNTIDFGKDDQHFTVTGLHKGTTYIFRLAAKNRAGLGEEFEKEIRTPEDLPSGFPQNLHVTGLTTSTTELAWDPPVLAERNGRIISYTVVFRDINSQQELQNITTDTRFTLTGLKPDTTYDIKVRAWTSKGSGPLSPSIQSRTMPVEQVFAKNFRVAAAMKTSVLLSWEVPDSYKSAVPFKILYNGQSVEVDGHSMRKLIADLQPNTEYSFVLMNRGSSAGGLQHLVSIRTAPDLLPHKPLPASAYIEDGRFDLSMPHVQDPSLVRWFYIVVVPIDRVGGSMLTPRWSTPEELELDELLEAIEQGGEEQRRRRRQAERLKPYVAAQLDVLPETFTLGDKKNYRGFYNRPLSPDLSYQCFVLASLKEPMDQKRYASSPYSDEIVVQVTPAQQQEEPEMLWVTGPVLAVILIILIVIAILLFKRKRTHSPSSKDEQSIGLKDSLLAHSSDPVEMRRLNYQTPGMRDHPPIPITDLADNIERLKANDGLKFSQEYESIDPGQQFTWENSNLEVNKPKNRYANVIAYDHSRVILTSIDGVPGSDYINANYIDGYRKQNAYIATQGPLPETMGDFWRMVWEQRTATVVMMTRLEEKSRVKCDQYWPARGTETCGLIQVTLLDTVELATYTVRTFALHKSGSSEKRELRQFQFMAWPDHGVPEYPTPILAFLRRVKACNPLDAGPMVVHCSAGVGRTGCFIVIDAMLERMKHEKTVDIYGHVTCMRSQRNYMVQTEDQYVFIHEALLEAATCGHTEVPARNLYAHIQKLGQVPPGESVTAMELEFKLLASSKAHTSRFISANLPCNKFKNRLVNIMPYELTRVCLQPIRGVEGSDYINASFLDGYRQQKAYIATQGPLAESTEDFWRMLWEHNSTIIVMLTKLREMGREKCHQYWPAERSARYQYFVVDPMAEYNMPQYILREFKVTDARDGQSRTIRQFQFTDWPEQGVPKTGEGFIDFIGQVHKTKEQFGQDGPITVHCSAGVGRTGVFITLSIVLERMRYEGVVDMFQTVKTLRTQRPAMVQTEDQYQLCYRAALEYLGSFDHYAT

With `O=C(Nc1nnc(-c2ccc(Oc3ccc([N+](=O)[O-])cc3[N+](=O)[O-])cc2)s1)c1cccc([N+](=O)[O-])c1` the inhibition [1] was 85.6%, the inhibition [2] was “Active” and the inhibition [3] was 99.2%. For the same compound, the IC50 [4] was “Not Active”, the IC50 [5] was “Not Active” and the IC50 [6] was “Not Active”. The IC50 [7] was 2.67 µM, the IC50 [8] was “Not Active” and the IC50 [9] was 2.52 µM.
For `Cc1ccccc1C(=O)Nc1nnc(-c2ccc(Oc3ccc([N+](=O)[O-])cc3[N+](=O)[O-])cc2)s1`, the inhibition [1] was 84%, the inhibition [3] was 93.7% and the IC50 [4] was “Not Active”. The IC50 [5] was “Not Active”, the IC50 [6] was “Not Active” and the IC50 [7] was 8.44 µM. For the same compound, the IC50 [8] was “Not Active” and the IC50 [9] was 6.51 µM.
`O=C(Nc1nnc(-c2ccc(Oc3ccc([N+](=O)[O-])cc3)cc2)s1)c1ccccc1` was tested, and the inhibition [1] was 79.6%, the inhibition [3] was 86.3% and the IC50 [4] was “Not Active”. The IC50 [5] was “Not Active”, the IC50 [6] was “Not Active” and the IC50 [7] was 9.89 µM. The IC50 [8] was “Not Active” and the IC50 [9] was 7.79 µM.
For `O=C(Cc1cccc2ccccc12)Nc1nnc(-c2ccc(Oc3ccc([N+](=O)[O-])cc3[N+](=O)[O-])cc2)s1`, the inhibition [1] was 82.1%, the inhibition [3] was 88.9% and the IC50 [4] was “Not Active”. The IC50 [5] was “Not Active”, the IC50 [6] was “Not Active” and the IC50 [7] was 6.07 µM. For the same compound, the IC50 [8] was “Not Active” and the IC50 [9] was 5.69 µM.
`Cc1ccccc1C(=O)Nc1nnc(-c2ccc(Oc3ccc([N+](=O)[O-])cc3)cc2)s1` was tested, and the inhibition [1] was 60.4%, the inhibition [3] was 94% and the IC50 [4] was “Not Active”. For the same compound, the IC50 [5] was “Not Active”, the IC50 [6] was “Not Active” and the IC50 [7] was 8.05 µM. For the same compound, the IC50 [8] was “Not Active” and the IC50 [9] was 9.41 µM.
With `COc1ccc(C(=O)Nc2nnc(-c3ccc(Oc4ccc([N+](=O)[O-])cc4)cc3)s2)cc1` the inhibition [1] was 72.6%, the inhibition [3] was 88.8% and the IC50 [4] was “Not Active”. For the same compound, the IC50 [5] was “Not Active”, the IC50 [6] was “Not Active” and the IC50 [7] was 9.08 µM. The IC50 [8] was “Not Active” and the IC50 [9] was 2.77 µM.
For `O=C(Cc1cccc2ccccc12)Nc1nnc(-c2ccc(Oc3ccc([N+](=O)[O-])cc3)cc2)s1`, the inhibition [1] was 74.1%, the inhibition [3] was 90.4% and the IC50 [4] was “Not Active”. The IC50 [5] was “Not Active”, the IC50 [6] was “Not Active” and the IC50 [7] was 7.52 µM. The IC50 [8] was “Not Active” and the IC50 [9] was 5.16 µM.
In the case of `O=C(Nc1nnc(-c2ccc(Oc3ccc([N+](=O)[O-])cc3)cc2)s1)c1cccnc1`, the inhibition [1] is reported as 82.4%, the inhibition [3] is reported as 97% and the IC50 [4] is reported as “Not Active”. For the same compound, the IC50 [5] was “Not Active”, the IC50 [6] was “Not Active” and the IC50 [7] was 10 µM. For the same compound, the IC50 [8] was “Not Active” and the IC50 [9] was 8.01 µM.
`O=C(Nc1nnc(-c2ccc(Oc3ccc([N+](=O)[O-])cc3[N+](=O)[O-])cc2)s1)c1ccccc1F` was tested, and the inhibition [1] was 88.4%, the inhibition [3] was 99.3% and the IC50 [4] was “Not Active”. The IC50 [5] was “Not Active”, the IC50 [6] was “Not Active” and the IC50 [7] was 3.51 µM. The IC50 [8] was “Not Active” and the IC50 [9] was 5.42 µM.
In the case of `O=C(Nc1nnc(-c2ccc(Oc3ccc([N+](=O)[O-])cc3[N+](=O)[O-])cc2)s1)c1ccccc1[N+](=O)[O-]`, the inhibition [1] is reported as 87.4%, the inhibition [3] is reported as 88.3% and the IC50 [4] is reported as “Not Active”. For the same compound, the IC50 [5] was “Not Active”, the IC50 [6] was “Not Active” and the IC50 [7] was 8.12 µM. For the same compound, the IC50 [8] was “Not Active” and the IC50 [9] was 15.8 µM.
With `O=C(Nc1nnc(-c2ccc(Oc3ccc([N+](=O)[O-])cc3)cc2)s1)c1ccco1` the inhibition [1] was 75.1%, the inhibition [3] was 87.7% and the IC50 [4] was “Not Active”. The IC50 [5] was “Not Active”, the IC50 [6] was “Not Active” and the IC50 [7] was 11.3 µM. For the same compound, the IC50 [8] was “Not Active” and the IC50 [9] was 6.44 µM.
